Reference: PMC11766273, “Design, Synthesis, Anticancer Screening, and Mechanistic Study of Spiro-N-(4-sulfamoyl-phenyl)-1,3,4-thiadiazole-2-carboxamide Derivatives” (International Journal of Molecular Sciences, 2025)

Columns and labels:
in vitro = conditions: human, WI 38 normal cells
Experimental: (§1) The growth percentage was calculated at different drug concentration
levels and at different times.
(§2) and WI 38 cell lines was determined utilizing established MTT test procedures.
(§3) All cell lines utilized were acquired from the Vacsera Cell Culture Library, Tissue
(§4) Culture Unit, Cairo, Egypt, with ATCC provenance.
(§5) concentrations that inhibited 50% of cell growth were tested three times, and the mean
(§6) was computed. Cells were grown in DMEM (Invitrogen/Life Technologies) augmented
(§7) with 10% FBS (Hyclone), 10 mg/ml of insulin (Sigma), and 1% penicillin-streptomycin.
(§8) Seed cells (density 1.2–1.8×10,000 cells/well) in 100 mL of complete growth medium and
(§9) 100 mL of the tested chemical per well in a 96-well plate for 24 h before the MTT testing.
(§10) In a standard experiment, 100 mL of serially diluted sterile testing substances were
(§11) introduced to achieve final concentrations ranging from 0.01 to 100 mM, utilizing
(§12) growth media as a negative control. Following 24 h of culture incubation, the
(§13) supernatants were discarded. The LOX IMVI, HT29, and RXF393 cell lines were
(§14) subjected to trypsinization and rinsed with calcium/magnesium-free PBS (pH 7.2). We
(§15) transferred cultures from the incubator to a laminar flow hood or sterile workspace.
(§16) Each test must incorporate a blank, providing complete media
(§17) balanced salt solution devoid of phenol red and serum. Incorporate reconstituted MTT
(§18) at a volume constituting 10% of the culture medium—re-incubate cultures for 2 to 4 h,
(§19) contingent upon cell type and optimal cell density. Upon completion of the incubation
(§20) period, the cultures from the incubator are extracted, and the resultant formazan
(§21) crystals are dissolved by adding an equivalent volume of MTT Solubilization Solution
Absorbance was spectrophotometrically
(§22) measured at a wavelength of 570 nm. Quantify the background absorbance of multi-
(§23) well plates at 690 nm and deduct this value from the data at 450 nm. Data from all
(§24) experiments were documented, and the viability percentage of cells was computed.

RXF393 cells = experiment: Cell cycle analysis (propidium iodide flow cytometry); conditions: RXF393 treated at IC50
Experimental: The impact of the target compound on cell cycle progression in the RXF393 cancer cell line was evaluated against doxorubicin as a positive control and untreated RXF393 as a negative control, utilizing a flow cytometry assay.
was assessed utilizing the Propidium Iodide Flow Cytometry Kit to quantify DNA
content following established protocols.
RXF393 cells were treated with the IC50 concentration of the target compound

[1] = tested on: melanoma LOX IMVI cancer cell line; experiment: MTT cell viability assay; conditions: for % viability: LOXIMVI
Experimental: as §1
levels and at different times.
as §2, §3, §4, §5, §6, §7, §8, §9, §10, §11, §12, §13, §14, §15, §16, §17, §18, §19, §20, §21
Absorbance was spectrophotometrically
as §22, §23, §24

renal RXF393 cell line = experiment: Apoptosis assay (Annexin V-FITC/PI); format: cell-based, human; conditions: RXF393 treated at IC50
[2] = tested on: colon HT29 cancer cell line; experiment: MTT cell viability assay
Experimental: as §1
levels and at different times.
as §2, §3, §4, §5, §6, §7, §8, §9, §10, §11, §12, §13, §14, §15, §16, §17, §18, §19, §20, §21
Absorbance was spectrophotometrically
as §22, §23, §24

[3] = tested on: renal RXF393 cancer cell line; experiment: MTT cell viability assay; conditions: for % viability: rxf393
Experimental: as §1
levels and at different times.
as §2, §3, §4, §5, §6, §7, §8, §9, §10, §11, §12, §13, §14, §15, §16, §17, §18, §19, §20, §21
Absorbance was spectrophotometrically
as §22, §23, §24

hCA IX = hCA IX (Homo sapiens, UniProt Q16790); design: method as in PMID 35671645, PMID 37577088, PMID 30978604, PMID 37776683; conditions: printed in Figure 1 for reported compounds; cited from earlier work
hCA XII = hCA XII (Homo sapiens, UniProt O43570); design: method as in PMID 35671645, PMID 37577088, PMID 30978604, PMID 37776683; conditions: printed in Figure 1 for reported compounds; cited from earlier work
hCA XII, sequence (O43570 25-354): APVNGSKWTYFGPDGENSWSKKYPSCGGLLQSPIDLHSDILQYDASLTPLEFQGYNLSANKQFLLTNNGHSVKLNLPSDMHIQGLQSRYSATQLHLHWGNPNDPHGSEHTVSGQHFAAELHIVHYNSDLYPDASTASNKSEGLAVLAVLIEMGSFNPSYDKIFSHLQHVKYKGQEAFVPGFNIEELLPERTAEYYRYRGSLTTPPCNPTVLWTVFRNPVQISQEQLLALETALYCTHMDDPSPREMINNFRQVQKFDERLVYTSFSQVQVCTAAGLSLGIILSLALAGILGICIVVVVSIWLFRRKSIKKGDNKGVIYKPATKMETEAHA

COc1cccc2c1C(=O)c1c(O)c3c(c(O)c1C2=O)C[C@@](O)(C(=O)CO)C[C@@H]3O[C@H]1C[C@H](N)[C@H](O)[C@H](C)O1 [Doxorubicin, doxorubicin, reference compound]
IC50 at 24 h (in vitro): 18.1 ± 0.59 µM
viability at 24 h, 0.4 µM (in vitro): 74.5%
viability at 24 h, 1.6 µM (in vitro): 63.2%
viability at 24 h, 6.3 µM (in vitro): 52.4%
viability at 24 h, 25 µM (in vitro): 46.6%
viability at 24 h, 100 µM (in vitro): 38.4%
DNA Content %G2/M (RXF393 cells; DMSO control 19.51): 11.01%
DNA Content %S (RXF393 cells; DMSO control 28.54): 16.81%
DNA Content %G0-G1 (RXF393 cells; DMSO control 51.95): 72.18%
IC50 ([1]; LOX IMVI): 6.08 ± 0.32 µM
% viability ([1]; 0.4uM): 69.98%
% viability ([1]; 1.6uM): 58.61%
% viability ([1]; 6.3uM): 49.41%
% viability ([1]; 25uM): 41.5165%
% viability ([1]; 100uM): 29.521%
Apoptosis Late (renal RXF393 cell line; DMSO control 0.18): 17.36%
Apoptosis Early (renal RXF393 cell line; DMSO control 0.42): 12.64%
Necrosis (renal RXF393 cell line; DMSO control 1.16): 9.02%
IC50 ([2]; HT29): 13.5 ± 0.71 µM
% viability ([2]; HT-29, 0.4uM): 79.36%
% viability ([2]; HT-29, 1.6uM): 68.43%
% viability ([2]; HT-29, 6.3uM): 57.377%
% viability ([2]; HT-29, 25uM): 45.5981%
% viability ([2]; HT-29, 100uM): 31.937%
IC50 ([3]; RXF393, MTT): 13.5 ± 0.82 µM
Cytotoxicity IC50 SD ([3]; RXF 393, Table S2): 13.54 ± 0.82 µg/mL
% viability ([3]; 0.4ug, MTT): 78.52%
% viability ([3]; 1.6ug, MTT): 69.673%
% viability ([3]; 6.25ug, MTT): 54.451%
% viability ([3]; 25ug, MTT): 43.883%
% viability ([3]; 100ug, MTT): 34.98%

NS(=O)(=O)c1ccc(NC(=O)Nc2ncc(-c3ccc(F)cc3)s2)cc1 [Compound I]
Ki (hCA IX): 0.0136 µM
Ki (hCA XII): 0.0276 µM
